Assay results from patent publication US10155798B2, “Anti-obesity compounds derived from neuromedin U” (The Regents of the University of California, priority 2013, dated 2018).
*1 amine or outer side, *2 acyl side, *3 side chain or, on linkers, in order; H or OH if unused. Where a SMILES comes first, the peptide text is derived from it. Bridges are numbered along the chain shown (N, C = ends). [ ]: non-standard residue; d: D form. The star is where a group is joined. mXylylene(5-CH2SC16H33) = CCCCCCCCCCCCCCCCSCc1cc(C[*:1])cc(C[*:2])c1; X1 = CCCCCCCCCCCCCCCCN(CCCCCCCCCCCCCCCC)CCCCCC(=O)*; Tic = O=C(O)[C@@H]1Cc2ccccc2CN1; Aib = CC(C)(N)C(=O)O; Ahx = NCCCCCC(=O)O

Experiments:
male DIO C57BL/6 mice [1] = assay: Chronic in vivo experiments in DIO mice (body weight, food intake, gastric emptying); set-up: species or system mouse; details: for gastric emptying in experimental animals: s.c. 1603 nMole/kg, chronic regimen
Description: FIG. 4. Anorectic effects of NM4A in chronic in vivo experiments. (A) Ad libitum fed male DIO C57BL/6 mice were treated with either vehicle or NM4A (2.2 mg/kg; 1603 nMole/kg) every 2, 4 or 7 days for 21 days. (B) Ad libitum fed male DIO C57BL/6 mice were treated with either vehicle or NM4A (2.2 mg/kg; 1603 nMole/kg) once a week for 21 days. After initial treatment animals were kept either on high-fat diet (FD) or normal diet (ND).
FIG. 6. (A) Comparison of anorectic effects of NM4A & NM4-C16 analogs in chronic in vivo experiments. Ad libitum fed male DIO C57BL/6 mice were treated with either vehicle or NM4A (2.2 mg/kg; 1603 nMole/kg) or NM4-C16 (2.6 mg/kg; 1603 nMole/kg) every 7 days for 21 days. (B) Food intake of animals treated with NM4-C16 (2.6 mg/kg; 1603 nMole/kg) every 7 days for 21 days.
NM4A was characterized further in in vivo chronic experiments. Ad libitum fed male DIO C57BL/6 mice, which were kept on the high fat diet (Cat #D12492, Research Diets, Inc., New Brunswick, N.J.), were treated subcutaneously (s.c.) with either vehicle or NM4A (2.2 mg/kg; 1603 nMole/kg) either every 2, 4 or 7 days for 21 days. […] To determine whether NM4A can be used as an auxiliary in dieting of the obese subjects we tested its efficiency in once weekly regimen at the 2.2 mg/kg dose. In this case, ad libitum fed male DIO C57BL/6 mice were kept either on the high fat diet (FD) or regular diet (ND) during NM4A's administration.
(§1) Despite limited success with our “double-lipidation” approach, we decided to test NM4-C16 analog in vivo using once weekly subcutaneous injection regimen at the 2.6 mg/kg dose, which is equimolar to previously used NM4A dose (e.g. 1603 nMole/kg).
All animal experiments were approved by the UCLA Animal Care and Use Committee (ARC #1999-173-23) and conformed to local and national guidelines. Ad libitum fed male DIO C57BL/6 mice (n=8 per group) kept on D12492, a high-fat diet composed of 60% Kcal from fat (Research Diets, Inc., New Brunswick, N.J.) were weighed and individually dosed (s.c., 30 min prior to the onset of the dark phase of the light cycle) with either vehicle or NM4A (2.2 mg/kg; 1603 nMole/kg) every 2 days or NM4A (2.2 mg/kg; 1603 nMole/kg) every 4 days or NM4A (2.2 mg/kg; 1603 nMole/kg) every 7 days or NM4-C16 (2.6 mg/kg; 1603 nMole/kg) every 7 days for 21 days and their food intake and body weight were measured daily. […] Briefly, calculated amount of the desired peptide (1 eq) and 10 equivalents of PUREBRIGHT® SL-220 (1 mg: 10 mg) were solubilized in minimal volume of 90% absolute ethyl alcohol in water. Subsequently solution was aliquoted into Eppendorf tubes and freeze-dried. Obtained solid residue was re-solubilized in the proper amount of PBS directly before use by vortexing.

male DIO C57BL/6 mice [2] = assay: Abdominal fat evaluation of chronically treated animals; assay type: in vivo, mouse; details: chronic treatment 21 days, 1603 nMole/kg; vehicle ~8%
Description: (§2) FIG. 7. (A) Abdominal fat evaluation of chronically treated animals. Ad libitum fed male DIO C57BL/6 mice were treated with either vehicle or NM4A (2.2 mg/kg; 1603 nMole/kg) every 2 days or NM4A (2.2 mg/kg; 1603 nMole/kg) every 4 days or ^(*)NM4-C16 (2.6 mg/kg; 1603 nMole/kg) every 7 days for 21 days. Subsequently, their abdominal fat was harvested and weighted. Results are expressed as % of abdominal fat per total body weight. (B) Distribution of NM4A in NM4A chronically treated animals (2.2 mg/kg; every 2 days for 28 days).
For three groups of animals treated every 2, 4 and 7 days we also performed abdominal fat evaluation (FIG. 7A).

[3] = biological target: T1, NMUR2 (neuromedin U 2 receptor) (Homo sapiens, UniProt Q9GZQ4); assay: Calcium mobilization assay, HEK-NMU2 cells; assay type: cell-based; details: HEK293 cells expressing NMU2 receptor, NA = not active
T1 construct: expressed in transfected cells; host or cells: HEK293 (HEK-NMU2)
T1 sequence (Q9GZQ4 whole entry): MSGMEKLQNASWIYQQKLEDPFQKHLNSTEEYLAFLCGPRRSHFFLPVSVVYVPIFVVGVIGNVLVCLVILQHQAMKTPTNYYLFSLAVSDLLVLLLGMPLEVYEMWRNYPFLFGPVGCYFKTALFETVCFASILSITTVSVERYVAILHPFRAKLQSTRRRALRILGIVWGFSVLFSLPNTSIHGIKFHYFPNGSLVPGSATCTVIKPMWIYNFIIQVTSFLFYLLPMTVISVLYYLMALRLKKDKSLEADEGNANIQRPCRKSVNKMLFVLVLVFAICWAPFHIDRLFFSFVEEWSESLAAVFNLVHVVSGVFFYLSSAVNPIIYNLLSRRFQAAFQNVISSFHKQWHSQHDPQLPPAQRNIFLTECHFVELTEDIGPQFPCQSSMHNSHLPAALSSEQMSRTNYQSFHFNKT
Description: (§3) To test whether neuromedin U can be modified/derivatized to yield truncated bioactive compound(s) that may be useful as therapeutics, we synthesized a small library (25 peptides) of hNMU analogs utilizing various stabilization protocols, including: cyclization, lipidation, introduction of α,α-disubstituted and N-methylated amino acids, retro-inverso-approach, and combination of such (see Table 1). Subsequently all analogues were tested against human neuromedin U receptors (NMUR1 and NMUR2) in calcium mobilization assay (collaboration with Dr Gary Willars, University of Leicester, UK).
HEK293 cells expressing either the neuromedin U 1 receptor or neuromedin U 2 receptor (HEK-NMU1 and HEK-NMU2 respectively) were grown to approximately 90% confluence in ELISA strip plates (96-well format) pre-coated with poly-D-lysine (0.1% w/v) and loaded for 45 min at 37° C. with 2 iM fluo-4-AM in Krebs'-HEPES buffer with bovine serum albumin (KHB-BSA; composition: 10 mM HEPES; 4.2 mM NaHCO3; 11.7 mM D-glucose; 1.18 mM MgSO4.7H2O; 1.18 mM KH2PO4; 4.69 mM KCl; 118 mM NaCl; 1.3 mM CaCl2.2H2O; 0.1% (w/v) BSA; pH 7.4). Monolayers were then washed and equilibrated for 5 min at 37° C. in 100 il KHB-BSA for subsequent recording of fluorescence as an index of intracellular [Ca^2+] ([Ca^2+]i) using a microplate reader (NOVOstar; BMG LABTECH, Aylesbury, U.K.). Briefly, 20 μl of KHB-BSA, with or without ligand, was added into the well (200 μl/s) and fluorescence determined at 0.5 s intervals by excitation at 485 nm and collection of emitted light at 520 nm. Changes in fluorescence above basal levels (before ligand addition) were determined. […] Fmax was obtained by removal of buffer and addition of KHB-BSA buffer containing 4 mM [Ca^2+] and ionomycin (2 μM) to representative wells and the fluorescence measured for 10 min. Fmin was then derived by replacing buffer with Ca^2+-free KHB-BSA buffer containing 2 mM EGTA and fluorescence measured for 10 min. For the determination of concentration-response relationships, the maximal change in [Ca^2+]i was calculated following ligand addition. Concentration-response curves were then fitted using a four-parameter logistic equation to determine EC50 values (GraphPad Software Inc., Calif.).

Water solubility = assay type: physicochemical
male DIO C57BL/6 mice [4] = assay: Hematological parameters of animals treated with NM4-C16; assay type: in vivo, mouse; details: 2.6 mg/kg every 7 days for 21 days
Description: as §1

[5] = biological target: T2, NMUR1 (neuromedin U 1 receptor) (Homo sapiens, UniProt Q9HB89); assay: Calcium mobilization assay, HEK-NMU1 cells; assay type: cell-based; details: HEK293 cells expressing NMU1 receptor, NA = not active
T2 construct: expressed in transfected cells; host or cells: HEK293 (HEK-NMU1)
T2 sequence (Q9HB89 1-426): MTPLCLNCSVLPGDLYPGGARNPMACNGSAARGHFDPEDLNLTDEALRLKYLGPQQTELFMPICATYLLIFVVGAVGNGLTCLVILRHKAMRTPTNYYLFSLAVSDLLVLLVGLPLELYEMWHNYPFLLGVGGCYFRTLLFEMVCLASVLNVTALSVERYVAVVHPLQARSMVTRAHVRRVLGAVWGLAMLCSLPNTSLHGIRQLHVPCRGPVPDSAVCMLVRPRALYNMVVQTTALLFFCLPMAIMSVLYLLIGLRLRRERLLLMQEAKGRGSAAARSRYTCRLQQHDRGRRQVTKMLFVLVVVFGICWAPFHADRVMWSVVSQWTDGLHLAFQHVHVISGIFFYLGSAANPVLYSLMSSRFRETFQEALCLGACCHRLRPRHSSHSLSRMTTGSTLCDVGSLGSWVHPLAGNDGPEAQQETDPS
Description: as §3
HEK293 cells expressing either the neuromedin U 1 receptor or neuromedin U 2 receptor (HEK-NMU1 and HEK-NMU2 respectively) were grown to approximately 90% confluence in ELISA strip plates (96-well format) pre-coated with poly-D-lysine (0.1% w/v) and loaded for 45 min at 37° C. with 2 iM fluo-4-AM in Krebs'-HEPES buffer with bovine serum albumin (KHB-BSA; composition: 10 mM HEPES; 4.2 mM NaHCO3; 11.7 mM D-glucose; 1.18 mM MgSO4.7H2O; 1.18 mM KH2PO4; 4.69 mM KCl; 118 mM NaCl; 1.3 mM CaCl2.2H2O; 0.1% (w/v) BSA; pH 7.4). Monolayers were then washed and equilibrated for 5 min at 37° C. in 100 il KHB-BSA for subsequent recording of fluorescence as an index of intracellular [Ca^2+] ([Ca^2+]i) using a microplate reader (NOVOstar; BMG LABTECH, Aylesbury, U.K.). […]

[6] = Body distribution of NM4A in chronically treated animals; assay type: in vivo, mouse; details: 2.2 mg/kg every 2 days for 28 days
Description: as §2
To test body distribution of NM-analogs we performed also limited ADME studies in animals that underwent chronic treatment with NM4A every 2 days for 28 days (2.2 mg/kg; 1603 nMole/kg dose).
Ad libitum fed male DIO C57BL/6 mice that underwent chronic treatment with NM4A (2.2 mg/kg; 1603 nMole/kg; dosing every 2 days for 28 days) were sacrificed and their organs/tissues harvested and weighted. […] Obtained homogenate(s) were transferred to 1.5 mL Eppendorf tubes and centrifuged for 10 min at 13000 rpm.

[7] = tested on: diet induced obese (DIO) mouse model; assay: Single dose in vivo anorectic experiments in DIO mouse model; details: DIO mice
Text: FIG. 3. Single dose in vivo experiments performed in DIO mouse model. (A) Comparison of anorectic effects of NM4 and NM7. (B) NM4 dose response experiments. (C) Comparison of NM4 and NM4A anorectic activity.
Initially we focused on single dose experiments comparing NM4 and NM7 at 5344 nMole/kg dose (FIG. 3).

EC50 [3] [µM]	water solubility (Water solubility)	hematological parameters/blood cell count (male DIO C57BL/6 mice [4])	EC50 [5] [µM]	SMILES	body weight, once-weekly administration (male DIO C57BL/6 mice [1]; s.c. 2.6 mg/kg (1603 nMole/kg) every 7 days for 21 days)	gastric emptying in experimental animals (male DIO C57BL/6 mice [1])	abdominal fat content (% of abdominal fat per total body weight) (male DIO C57BL/6 mice [2]) [%]	body weight, once weekly regimen as auxiliary in dieting (male DIO C57BL/6 mice [1]; 2.2 mg/kg once a week for 21 days, high fat diet (FD) or regular diet (ND))	anorectic effects, chronic treatment (male DIO C57BL/6 mice [1]; s.c. 2.2 mg/kg every 2 and every 4 days for 21 days, high fat diet)	anorectic effects, chronic treatment, less frequent dosage (male DIO C57BL/6 mice [1]; s.c. 2.2 mg/kg every 7 days for 21 days, high fat diet)	entry into the brain [6]	tissue with highest content [6]	duration of anorectic effects after single dose administration ([7]; 1603 nMole/kg, 2.2 mg/kg) [days]	in vivo activity relative to NM4 ([7]; single dose, FIG. 3C)
0.741 ± 0.032	limited water solubility	appears to be normal	–	CCCCCCCCCCCCCCCCN(CCCCCCCCCCCCCCCC)CCCCCC(=O)NC(C)(C)C(=O)N[C@@H](Cc1ccccc1)C(=O)N[C@@H](CC(C)C)C(=O)N[C@@H](Cc1ccccc1)C(=O)N[C@@H](CCCNC(=N)N)C(=O)N1CCC[C@H]1C(=O)N[C@@H](CCCNC(=N)N)C(=O)N[C@@H](CC(N)=O)C(N)=O [Peptide M4-C16, (c16)2-Ahx-Aib-FL-Phe-Arg-Pro-R-Asn] (X1-[Aib]FLFRPRN-NH2)	sustained weight loss	very limited gastric emptying	~5	–	–	–	–	–	–	–
–	–	–	3.98	CCCCCCCCCCCCCCCCSCc1cc2cc(c1)CSC[C@H](N)C(=O)NCCCCCC(=O)N[C@@H](Cc1ccccc1)C(=O)N[C@@H](CC(C)C)C(=O)N[C@@H](Cc1ccccc1)C(=O)N[C@@H](CCCNC(=N)N)C(=O)N1Cc3ccccc3C[C@H]1C(=O)N[C@@H](CCCNC(=N)N)C(=O)N[C@@H](CC(N)=O)C(=O)NCCCCCC(=O)N[C@H](C(N)=O)CSC2 [NM16, PalS-X(C-Ahx-FL-Phe-Arg-Tic-R-Asn-Ahx-C)] (H-C[Ahx]FLFR[Tic]RN[Ahx]C-NH2; linker 1-11 via mXylylene(5-CH2SC16H33))	–	–	–	–	–	–	–	–	–	–
2.69	–	–	3.98	CC(C)C[C@H](NC(=O)[C@H](Cc1ccccc1)NC(=O)CCCCCNC(=O)[C@@H](N)CS)C(=O)N[C@@H](Cc1ccccc1)C(=O)N[C@@H](CCCNC(=N)N)C(=O)N1Cc2ccccc2C[C@H]1C(=O)N[C@@H](CCCNC(=N)N)C(=O)N[C@@H](CC(N)=O)C(=O)NCCCCCC(=O)N[C@@H](CS)C(N)=O [NM10, C-Ahx-FL-Phe-Arg-Tic-R-Asn-Ahx-C] (H-C[Ahx]FLFR[Tic]RN[Ahx]C-NH2)	–	–	–	–	–	–	–	–	–	–
0.00646 ± 0.00089	limited water solubility	–	–	CCCCCCCCCCCCCCCCNC(=O)CNCC(=O)NC(C)(C)C(=O)N[C@@H](Cc1ccccc1)C(=O)N[C@@H](CC(C)C)C(=O)N[C@@H](Cc1ccccc1)C(=O)N[C@@H](CCCNC(=N)N)C(=O)N1CCC[C@H]1C(=O)N[C@@H](CCCNC(=N)N)C(=O)N[C@@H](CC(N)=O)C(N)=O [Peptide M4A, Ida^NHPal-Aib-FL-Phe-Arg-Pro-R-Asn]	–	causes initially gastric emptying	~5	additional body weight decrease	potent anorectic effects	limited activity	does not appear to enter the brain effectively	highest content of NM4A is detected in plasma	≤ 20	at least 3.5 times
